# According to patent US20230391760A1, “HETEROCYCLIC GLP-1 AGONISTS” (Gasherbrum Bio, Inc., priority 2020, published 2023):
# Target: GLP-1 Receptor (Homo sapiens, UniProt P43220)
# Experiment: GLP-1R agonist cAMP stimulation assay (HEK293/GLP1R/CRE-LUC cells, cAMP dynamic 2 Kit)
# Format: cell-based
# Details: HEK293/CRE-Luc cell line stably expressing the GLP-1 Receptor, 30 min at 37° C.
# Method in brief: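 cAMP measured by HTRF competition (d2-labelled cAMP with cryptate antibody, 1 h, room temperature, protected from light). Before that, GLP1R/CRE-Luc HEK293 cells (1000/well) were exposed for 30 min at 37 °C to half-log compound dilutions in DPBS containing IBMX 0.5 mM and BSA 0.1%.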
# GLP-1 Receptor, sequence (P43220 24-463, species assumed): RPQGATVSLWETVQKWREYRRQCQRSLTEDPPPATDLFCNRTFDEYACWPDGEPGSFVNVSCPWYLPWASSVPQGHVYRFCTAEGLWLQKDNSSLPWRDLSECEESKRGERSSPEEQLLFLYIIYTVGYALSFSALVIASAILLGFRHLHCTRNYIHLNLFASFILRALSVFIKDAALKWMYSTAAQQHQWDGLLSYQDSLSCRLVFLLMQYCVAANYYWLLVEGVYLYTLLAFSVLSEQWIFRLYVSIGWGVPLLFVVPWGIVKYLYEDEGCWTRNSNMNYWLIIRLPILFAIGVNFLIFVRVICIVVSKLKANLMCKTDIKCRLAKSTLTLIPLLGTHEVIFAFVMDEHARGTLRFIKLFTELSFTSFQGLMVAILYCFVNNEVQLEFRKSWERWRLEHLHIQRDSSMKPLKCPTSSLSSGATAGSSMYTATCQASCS
row,Compound,EC50 [nM]
1,"Cc1nnc(-c2ccc3c(c2)nc(CN2CCC(c4cccc5c4OC(C)(c4ccc(Cl)cn4)O5)CC2)n3C[C@@H]2CCO2)[nH]1 (stereo partly drawn) [Compound 271a, 2-({4-[2-(5-chloropyridin-2-yl)-2-methyl-2H-1,3-benzodioxol-4-yl]piperidin-1-yl}methyl)-5-(5-methyl-4H-1,2,4-triazol-3-yl)-1-{[(2S)-oxetan-2-yl]methyl}-1H-1,3-benzodiazole]",0.34
2,"C[C@]1(c2ccc(Cl)cn2)Oc2cccc(C3CCN(Cc4nc5cc(-c6nnc(C(F)(F)F)[nH]6)nnc5n4C[C@H]4CCOC4)CC3)c2O1 [Compound 474a, 5-chloro-2-[(2S)-2-methyl-4-{1-[(7-{[(3R)-oxolan-3-yl]methyl}-3-[5-(trifluoromethyl)-4H-1,2,4-triazol-3-yl]-7H-imidazo[4,5-c]pyridazin-6-yl)methyl]piperidin-4-yl}-2H-1,3-benzodioxol-2-yl]pyridine]",1.5
3,"CC(=O)Nc1ccc2c(c1)nc(CN1CCC(c3cccc(OCc4ccc(Cl)cc4F)n3)CC1)n2C[C@@H]1CCO1 [Compound 101a, (S)—N-(2-((4-(6-((4-chloro-2-fluorobenzyl)oxy)pyridin-2-yl)piperidin-1-yl)methyl)-1-(oxetan-2-ylmethyl)-1H-benzo[d]imidazol-5-yl)acetamide]",1.09
4,"CS(=O)(=O)Nc1ccc2c(c1)nc(CN1CCC(c3cccc(OCc4ccc(Cl)cc4F)n3)CC1)n2C[C@@H]1CCO1 [Compound 108a, (S)—N-(2-((4-(6-((4-chloro-2-fluorobenzyl)oxy)pyridin-2-yl)piperidin-1-yl)methyl)-1-(oxetan-2-ylmethyl)-1H-benzo[d]imidazol-5-yl)methanesulfonamide]",155
5,"CO[C@H](C)Cn1c(CN2CCC(c3cccc4c3O[C@@](C)(c3ccc(Cl)cc3F)O4)CC2)nc2cc(-c3noc(=O)[nH]3)cnc21 [Compound 397a, 3-[2-({4-[(2S)-2-(4-chloro-2-fluorophenyl)-2-methyl-2H-1,3-benzodioxol-4-yl]piperidin-1-yl}methyl)-3-[(2R)-2-methoxypropyl]-3H-imidazo[4,5-b]pyridin-6-yl]-4,5-dihydro-1,2,4-oxadiazol-5-one]",1.3
6,"CC1(c2ccc(Cl)cn2)Oc2cccc(C3=CCN(Cc4nc5cc(-c6nnc(C7CC7)[nH]6)cnc5n4C[C@@H]4CCO4)CC3)c2O1 (stereo partly drawn) [Compound 416a, 5-chloro-2-[4-(1-{[6-(5-cyclopropyl-4H-1,2,4-triazol-3-yl)-3-{[(2S)-oxetan-2-yl]methyl}-3H-imidazo[4,5-b]pyridin-2-yl]methyl}-1,2,3,6-tetrahydropyridin-4-yl)-2-methyl-2H-1,3-benzodioxol-2-yl]pyridine]",14
7,"CC1(c2ccc(Cl)cc2F)Oc2cccc(C3CCN(Cc4nc5cc(-c6cn[nH]c6)ccc5n4C[C@@H]4CCO4)CC3)c2O1 (stereo partly drawn) [Compound 234a, 2-((4-(2-(4-chloro-2-fluorophenyl)-2-methylbenzo[d][1,3]dioxol-4-yl)piperidin-1-yl)methyl)-1-(((S)-oxetan-2-yl)methyl)-5-(1H-pyrazol-4-yl)-1H-benzo[d]imidazole]",3.7
8,"O=c1[nH]c(-c2cnc3c(c2)nc(CN2CCC(c4cccc5c4OC[C@@H](c4ccc(Cl)cc4)O5)CC2)n3C[C@@H]2CCO2)no1 [Compound 407a, 3-[2-({4-[(2R)-2-(4-chlorophenyl)-2,3-dihydro-1,4-benzodioxin-5-yl]piperidin-1-yl}methyl)-3-{[(2S)-oxetan-2-yl]methyl}-3H-imidazo[4,5-b]pyridin-6-yl]-4,5-dihydro-1,2,4-oxadiazol-5-one]",4.5
9,"O=C1CCCN1c1ccc2c(c1)nc(CN1CCC(c3cccc(OCc4ccc(Cl)cc4F)n3)CC1)n2C[C@@H]1CCO1 [Compound 119a, 1-{2-[(4-{6-[(4-chloro-2-fluorophenyl)methoxy]pyridin-2-yl}piperidin-1-yl)methyl]-1-{[(2S)-oxetan-2-yl]methyl}-1H-1,3-benzodiazol-5-yl}pyrrolidin-2-one]",7.2
10,"CC1(c2ccc(Cl)cc2F)Oc2cccc(C3CCN(Cc4nc5cc(-c6nnc(C(F)(F)F)[nH]6)cnc5n4C[C@H]4CCOC4)CC3)c2O1 (stereo partly drawn) [Compound 401a, 4-[2-(4-chloro-2-fluorophenyl)-2-methyl-2H-1,3-benzodioxol-4-yl]-1-[(3-{[(3R)-oxolan-3-yl]methyl}-6-[5-(trifluoromethyl)-4H-1,2,4-triazol-3-yl]-3H-imidazo[4,5-b]pyridin-2-yl)methyl]piperidine]",0.6
11,"Cc1cnc(-c2ccc3c(c2)nc(CN2CCC(c4cccc5c4O[C@@](C)(c4ccc(Cl)cc4F)O5)CC2)n3C[C@@H]2CCO2)nc1 [Compound 236a, 2-((4-((S)-2-(4-chloro-2-fluorophenyl)-2-methylbenzo[d][1,3]dioxol-4-yl)piperidin-1-yl)methyl)-5-(5-methylpyrimidin-2-yl)-1-(((S)-oxetan-2-yl)methyl)-1H-benzo[d]imidazole]",2
12,"Cc1cnc(C(=O)Nc2ccc3c(c2)nc(CN2CCC(c4cccc(OCc5ccc(Cl)cc5F)n4)CC2)n3C[C@@H]2CCO2)c(C)c1 [Compound 184a, N-{2-[(4-{6-[(4-chloro-2-fluorophenyl)methoxy]pyridin-2-yl}piperidin-1-yl)methyl]-1-{[(2S)-oxetan-2-yl]methyl}-1H-1,3-benzodiazol-5-yl}-3,5-dimethylpyridine-2-carboxamide]",2

# Now those with a lower EC50, led by results:
row,EC50 [nM],Compound
1,0.055,"Cc1nnc(-c2ccc3c(c2)nc(CN2CCC(c4cccc5c4OC(C)(c4ccc(Cl)cn4)O5)CC2)n3CC2(C#N)CC2)[nH]1 (stereo not shown) [Compound 414, 1-{[2-({4-[2-(5-chloropyridin-2-yl)-2-methyl-2H-1,3-benzodioxol-4-yl]piperidin-1-yl}methyl)-5-(5-methyl-4H-1,2,4-triazol-3-yl)-1H-1,3-benzodiazol-1-yl]methyl}cyclopropane-1-carbonitrile]"
2,0.19,"CO[C@H](C)Cn1c(CN2CCC(c3cccc4c3O[C@@](C)(c3ccc(Cl)cn3)O4)CC2)nc2cc(-c3noc(=O)[nH]3)ncc21 [Compound 466a, 3-[2-({4-[(2S)-2-(5-chloropyridin-2-yl)-2-methyl-2H-1,3-benzodioxol-4-yl]piperidin-1-yl}methyl)-3-[(2R)-2-methoxypropyl]-3H-imidazo[4,5-c]pyridin-6-yl]-4,5-dihydro-1,2,4-oxadiazol-5-one]"
3,0.062,"C[C@]1(c2ccc(Cl)cc2F)Oc2cccc(C3CCN(Cc4nc5cc(-c6noc(=O)[nH]6)nnc5n4C[C@@H]4CCO4)CC3)c2O1 [Compound 348a, 3-[6-({4-[(2S)-2-(4-chloro-2-fluorophenyl)-2-methyl-2H-1,3-benzodioxol-4-yl]piperidin-1-yl}methyl)-7-{[(2S)-oxetan-2-yl]methyl}-7H-imidazo[4,5-c]pyridazin-3-yl]-4,5-dihydro-1,2,4-oxadiazol-5-one]"
4,0.017,"N#Cc1nnc(-c2cc3nc(CN4CCC(c5cccc(OCc6ccc(Cl)cc6F)n5)CC4)n(C[C@@H]4CCO4)c3nn2)[nH]1 [Compound 526a, 5-{6-[(4-{6-[(4-chloro-2-fluorophenyl)methoxy]pyridin-2-yl}piperidin-1-yl)methyl]-7-{[(2S)-oxetan-2-yl]methyl}-7H-imidazo[4,5-c]pyridazin-3-yl}-4H-1,2,4-triazole-3-carbonitrile]"
5,0.018,"Fc1cc(Cl)ccc1COc1cccc(C2CCN(Cc3nc4cc(-c5nnc(C(F)(F)F)[nH]5)ncc4n3C[C@@H]3CCO3)CC2)n1 [Compound 435a, 2-[(4-chloro-2-fluorophenyl)methoxy]-6-{1-[(3-{[(2S)-oxetan-2-yl]methyl}-6-[5-(trifluoromethyl)-4H-1,2,4-triazol-3-yl]-3H-imidazo[4,5-c]pyridin-2-yl)methyl]piperidin-4-yl}pyridine]"
6,0.11,"CC1(c2ccc(C#N)cn2)Oc2cccc(C3CCN(Cc4nc5cc(-c6nnc(C(F)(F)F)[nH]6)ccc5n4C[C@@H]4CCO4)CC3)c2O1 (stereo partly drawn) [Compound 354a, 6-(2-methyl-4-{1-[(1-{[(2S)-oxetan-2-yl]methyl}-5-[5-(trifluoromethyl)-4H-1,2,4-triazol-3-yl]-1H-1,3-benzodiazol-2-yl)methyl]piperidin-4-yl}-2H-1,3-benzodioxol-2-yl)pyridine-3-carbonitrile]"
7,0.12,"CC1(c2ccc(Cl)cc2F)Oc2cccc(C3CCN(Cc4nc5cc(-c6nnn[nH]6)c(F)cc5n4C[C@@H]4CCO4)CC3)c2O1 (stereo partly drawn) [Compound 223a, 2-({4-[2-(4-chloro-2-fluorophenyl)-2-methyl-2H-1,3-benzodioxol-4-yl]piperidin-1-yl}methyl)-6-fluoro-1-{[(2S)-oxetan-2-yl]methyl}-5-(1H-1,2,3,4-tetrazol-5-yl)-1H-1,3-benzodiazole]"
8,0.11,"Cc1nnc(-c2cc3nc(CN4CCC(c5cccc6c5O[C@@](C)(c5ccc(Cl)cc5F)O6)CC4)n(C[C@@H]4CCO4)c3nn2)[nH]1 [Compound 280a, 4-[(2S)-2-(4-chloro-2-fluorophenyl)-2-methyl-2H-1,3-benzodioxol-4-yl]-1-{[3-(5-methyl-4H-1,2,4-triazol-3-yl)-7-{[(2S)-oxetan-2-yl]methyl}-7H-imidazo[4,5-c]pyridazin-6-yl]methyl}piperidine]"
9,0.27,"CC1(c2ccc(Cl)cc2F)Oc2cccc(C3CCN(Cc4nc5cc(-c6nnc(C(F)F)[nH]6)c(F)cc5n4C[C@@H]4CCO4)CC3)c2O1 (stereo partly drawn) [Compound 249a, 2-({4-[2-(4-chloro-2-fluorophenyl)-2-methyl-2H-1,3-benzodioxol-4-yl]piperidin-1-yl}methyl)-5-[5-(difluoromethyl)-4H-1,2,4-triazol-3-yl]-6-fluoro-1-{[(2S)-oxetan-2-yl]methyl}-1H-1,3-benzodiazole]"
10,0.207,"O=C(Nc1ccc2c(c1)nc(CN1CCC(c3cccc(OCc4ccc(Cl)cc4F)n3)CC1)n2C[C@@H]1CCO1)C1COC1 [Compound 104a, (S)—N-(2-((4-(6-((4-chloro-2-fluorobenzyl)oxy)pyridin-2-yl)piperidin-1-yl)methyl)-1-(oxetan-2-ylmethyl)-1H-benzo[d]imidazol-5-yl)oxetane-3-carboxamide]"
